Test results from US20250136592A1, “C-LINKED INHIBITORS OF ENL/AF9 YEATS” (Bridge Medicines, priority 2021, published 2025).
Where two headings read alike, the source gives them in different places.

What was measured:
[1] = target: ENL YEATS domain (Homo sapiens (Human), UniProt Q03111); assay: TR-FRET ENL Screening Assay; conditions: 6xHIS ENL YEATS domain binding to H3K9cr peptide
Description: Compounds of the invention were tested in a TR-FRET ENL Screening Assay. TR-FRET (time-resolved fluorescence energy transfer) can be used to quantify ENL YEATS domain binding to a crotonylated histone peptide (H3K9cr, aa1-20). Streptavidin-Europium (Eu) chelate binds the biotinylated peptide, while Anti-6×HIS ULight™ binds 6×HIS-ENL. When Eu chelate is excited at 320 nm, fluorescence resonance energy transfer (FRET) occurs if Eu and ULight are made proximal by ENL binding to the acyl-peptide.
Low control (LC) wells received 5 μL of assay buffer instead of ENL protein. […] The response at each compound concentration minus the LC value was converted to percent inhibition of the vehicle control group response (HC-LC).

[2] = tested on: MV4:11 (MLL-AF4 MLL) cells; assay: Cell viability assay (CellTiter-Glo), 12 days; type: cell-based; conditions: MV4;11 cells, 12 day, read-out: CTG_MV4, 11 12 DAY_EC50
Description: The assays were conducted over 12 days and the cells being split on days 4 and 8. […] Blank wells received cell culture medium. Plates were incubated for 4 days at 37° C. with 5% CO2. On days 4 and day 8 the cells were split and incubated for a further 4 days whilst an aliquot of cells were taken for the CTG readout. For the cell splitting, 270 nL of compounds or DMSO was added to a new 96 well cell culture plate to which 90 μL of medium plus 10 μL of cells from the original assay plate (after mixing) or 100 μL of medium (Blank wells) was added. This was repeated on day 8.
Cell viability was assessed using the CellTiter-Glo® homogeneous luminescent assay kit (Promega, G9243), according to the manufacturer's instructions. This quantifies ATP, which indicates the presence of metabolically active cells. […] The resulting data were analyzed as follows:
where vehicle are cells treated with 0.3% DMSO, Blank is culture medium. IC50 determinations were calculated by fitting the curve using XLfit (v5.3.1.3): Y=Bottom+(Top−Bottom)/(1+10^((LogIC50−X)*HillSlope)).

Sequence of ENL YEATS domain (Q03111 1-138): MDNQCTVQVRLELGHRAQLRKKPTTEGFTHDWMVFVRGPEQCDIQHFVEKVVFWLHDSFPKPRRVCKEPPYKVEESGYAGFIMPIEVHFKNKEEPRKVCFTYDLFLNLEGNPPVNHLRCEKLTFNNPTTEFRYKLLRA

SMILES	IC50 [1] [µM]	EC50 ([2]; Homo sapiens, 288 h) [µM]	EC50 [2] [µM]
CN1CCC[C@@H]1c1cc2cnc(NC(=O)c3ccc4c(N)nccc4c3)cc2[nH]1 [Example 41]	0.014	0.072	
Cc1ncc2cc(C(=O)Nc3cc4[nH]c([C@H]5CCCN5C)cc4cn3)ccn12 [Example 42]	0.084	0.117	
CN1CCC[C@@H]1c1cc2cnc(NC(=O)c3ccc4[nH]nc(Cl)c4c3)cc2[nH]1 [Example 43]	0.037	0.256	
CN1CCC[C@@H]1c1cc2cnc(NC(=O)c3ccn4ccnc4c3)cc2[nH]1 [Example 45]	0.293	6.95	
CN1CCC[C@@H]1c1cc2cnc(NC(=O)c3ccc4[nH]nc(F)c4c3)cc2[nH]1 [Example 46]	0.061	0.257	
CNc1c(OC)cnc2cc(C(=O)Nc3cc4[nH]c([C@H]5CCCN5C)cc4cn3)ccc12 [Example 47]	0.028	0.745	
CNc1nn(C)c2cc(C(=O)Nc3cc4[nH]c([C@H]5CCCN5C)cc4cn3)ccc12 [Example 50]	0.103	2.32	
COCCNc1nn(C)c2cc(C(=O)Nc3cc4[nH]c([C@H]5CCCN5C)cc4cn3)ccc12 [Example 51]	0.1	1.2	
COc1c(C(=O)Nc2cc3[nH]c([C@H]4CCCN4C)cc3cn2)ccc2c(C)n[nH]c12 [Example 54]	0.318	0.621	
CN1CCC[C@@H]1c1cc2cnc(NC(=O)c3ccc4c(ccn4C)c3)cc2[nH]1 [Example 60]	0.148	0.298	
Cc1nnn2cc(C(=O)Nc3cc4[nH]c([C@H]5CCCN5C)cc4cn3)ccc12 [Example 64]	0.091	0.773	
CC(C)c1ncc2cc(C(=O)Nc3cc4[nH]c([C@H]5CCCN5C)cc4cn3)ccn12 [Example 67]	0.075	0.038	
CN1CCC[C@@H]1c1cc2cnc(NC(=O)c3ccn4c(C5CC5)ncc4c3)cc2[nH]1 [Example 68]	0.035	0.048	
Cc1ncn2ccc(C(=O)Nc3cc4[nH]c([C@H]5CCCN5C)cc4cn3)cc12 [Example 70]	0.11	0.189	
CN1CCC[C@@H]1c1cc2ncc(NC(=O)c3ccc4c(F)n[nH]c4c3F)cc2[nH]1 [Example 74]	0.079	1.42	
Cc1ncc2c(F)c(C(=O)Nc3cnc4cc([C@H]5CCCN5C)[nH]c4c3)ccn12 [Example 75]	0.126	2.41	
Cc1ccc2cc(C(=O)Nc3ccc4cc([C@H]5CCCN5C)[nH]c4c3)c(F)cc2n1 [Example 76]	0.136		0.723

SMILES	IC50 [1] [µM]	EC50 ([2]; Homo sapiens, 288 h) [µM]	EC50 [2] [µM]
CN1CCC[C@@H]1c1cc2cnc(NC(=O)c3ccc4c(C(F)F)nn(C)c4c3)cc2[nH]1 [Example 78, (R)-3-(difluoromethyl)-1-methyl-N-(2-(1-methylpyrrolidin-2-yl)-1H-pyrrolo[3,2-c]pyridin-6-yl)-1H-indazole-6-carboxamide]	0.014	0.167	
CN1CCCC[C@@H]1c1cc2cnc(NC(=O)c3ccc4c(F)nn(C)c4c3)cc2[nH]1 [Example 81, (R)-3-fluoro-1-methyl-N-(2-(1-methylpiperidin-2-yl)-1H-pyrrolo[3,2-c]pyridin-6-yl)-1H-indazole-6-carboxamide]	0.051	0.292	
CN1CCC[C@@H]1c1cc2ncc(NC(=O)c3ccc4cnn(C5CC5)c4c3)cc2[nH]1 [Example 82]	0.102	0.409	
CN1CCC[C@@H]1c1cc2cnc(NC(=O)c3ccc4c(cnn4-c4ccncc4)c3)cc2[nH]1 [Example 84]	0.031	0.134	
Cc1nn(C)c2ccc(C(=O)Nc3cc4[nH]c([C@H]5CCCCN5C)cc4cn3)cc12 [Example 87]	0.047	0.172	
Cc1nccc2ccc(C(=O)Nc3cc4[nH]c([C@H]5CCCCN5C)cc4cn3)cc12 [Example 88]	0.047	0.069	
Cc1ncc2ccc(C(=O)Nc3cc4[nH]c([C@H]5CCCCN5C)cc4cn3)cn12 [Example 89]	0.175	0.252	
Cc1nc(C)n2cc(C(=O)Nc3cc4[nH]c([C@H]5CCCCN5C)cc4cn3)ccc12 [Example 90]	0.051	0.144	
Cc1ncn2ccc(C(=O)Nc3cc4[nH]c([C@H]5CCCCN5C)cc4cn3)cc12 [Example 92]	0.093	0.1	
Cc1nnc(C)c2cc(C(=O)Nc3cc4[nH]c([C@H]5CCCCN5C)cc4cn3)ccc12 [Example 93]	0.076	0.146	
CN1C(=O)Cc2ccc(C(=O)Nc3cc4[nH]c([C@H]5CCCCN5C)cc4cn3)cc21 [Example 94]	0.22	0.368	
CN1CCCC[C@@H]1c1cc2cnc(NC(=O)c3ccc4c(c3)N(C)S(=O)(=O)C4)cc2[nH]1 [Example 96]	0.25	0.319	
CN1CCCC[C@@H]1c1cc2cnc(NC(=O)c3ccc4c(ccc(=O)n4C)c3)cc2[nH]1 [Example 99, (R)-1-methyl-N-(2-(1-methylpiperidin-2-yl)-1H-pyrrolo[3,2-c]pyridin-6-yl)-2-oxo-1,2-dihydroquinoline-6-carboxamide]	0.056	0.293	
CN1CCCC[C@@H]1c1cc2cnc(NC(=O)c3ccc4c(=O)n(C)cnc4c3)cc2[nH]1 [Example 101, (R)-3-methyl-N-(2-(1-methylpiperidin-2-yl)-1H-pyrrolo[3,2-c]pyridin-6-yl)-4-oxo-3,4-dihydroquinazoline-7-carboxamide]	0.177	0.426	
CN1CCCC[C@@H]1c1cc2cnc(NC(=O)c3ccc4ncn(C)c(=O)c4c3)cc2[nH]1 [Example 102, (R)-3-methyl-N-(2-(1-methylpiperidin-2-yl)-1H-pyrrolo[3,2-c]pyridin-6-yl)-4-oxo-3,4-dihydroquinazoline-6-carboxamide]	0.2	0.289	
Cc1nn(C)c(=O)c2cc(C(=O)Nc3cc4[nH]c([C@H]5CCCCN5C)cc4cn3)ccc12 [Example 103, (R)-1,3-dimethyl-N-(2-(1-methylpiperidin-2-yl)-1H-pyrrolo[3,2-c]pyridin-6-yl)-4-oxo-3,4-dihydrophthalazine-6-carboxamide]	0.148	0.292	
Cc1nn(C)c(=O)c2ccc(C(=O)Nc3cc4[nH]c([C@H]5CCCCN5C)cc4cn3)cc12 [Example 104, (R)-2,4-dimethyl-N-(2-(1-methylpiperidin-2-yl)-1H-pyrrolo[3,2-c]pyridin-6-yl)-1-oxo-1,2-dihydrophthalazine-6-carboxamide]	0.16	0.492	

Other lines, results leading:

IC50 [1] [µM]	EC50 ([2]; Homo sapiens, 288 h) [µM]	EC50 [2] [µM]	SMILES
0.034	0.088		Cc1nn(C)c2cc(C(=O)Nc3cc4[nH]c([C@H]5CCCN5C)cc4cn3)ccc12 [Example 40]
0.026	1.44		CN1CCC[C@@H]1c1cc2cnc(NC(=O)c3ccc4c(cnn4C)c3)cc2[nH]1 [Example 49]
0.018	0.688		CN1CCC[C@@H]1c1cc2cnc(NC(=O)c3ccc4c(F)nn(C)c4c3)cc2[nH]1 [Example 55]
0.131	4.78		Cc1nc2ccc(C(=O)Nc3cc4[nH]c([C@H]5CCCN5C)cc4cn3)cc2o1 [Example 56]
0.106	> 30		CN1CCC[C@@H]1c1cc2cnc(NC(=O)c3ccc4c(c3)nnn4C)cc2[nH]1 [Example 57]
0.208	8.58		Cc1[nH]c2ccc(C(=O)Nc3cc4[nH]c([C@H]5CCCN5C)cc4cn3)cc2c1C [Example 58]
0.053	15.8		CN1CCC[C@@H]1c1cc2cnc(NC(=O)c3ccc4c(c3)ncn4C)cc2[nH]1 [Example 59]
0.09	2.86		Cc1nc2cc(C(=O)Nc3cc4[nH]c([C@H]5CCCN5C)cc4cn3)ccc2[nH]1 [Example 61]
0.465	0.597		CN1CCC[C@@H]1c1cc2cnc(NC(=O)c3ccc4ccn(C)c4c3)cc2[nH]1 [Example 62]
0.095	7.02		CN1CCC[C@@H]1c1cc2cnc(NC(=O)c3ccc4ncn(C)c4c3)cc2[nH]1 [Example 63]
0.018	0.054		Cc1nccc2cc(C(=O)Nc3cc4[nH]c([C@H]5CCCN5C)cc4cn3)ccc12 [Example 65]
0.029	1.63		Cc1ccc2cc(C(=O)Nc3cc4[nH]c([C@H]5CCCN5C)cc4cn3)ccc2n1 [Example 66]
0.12	2.57		CN1CCC[C@@H]1c1cc2cnc(NC(=O)c3ccc4nnn(C)c4c3)cc2[nH]1 [Example 72]
0.064	0.229		Cc1nccc2ccc(C(=O)Nc3cc4[nH]c([C@H]5CCCN5C)cc4cn3)cc12 [Example 83]
